Results as given in patent publication US20150159115A1, “PURIFICATION OF DPA ENRICHED OIL” (Omega Protein Corporation, priority 2013, published 2015).
“Also recorded” adds a separate entry of the source. Like-named read-outs stand apart in the source and are kept apart here.

Tests used:
[1] = tested on: THP-1 cells; experiment: Cytokine (TNF-α, MCP-1, IL-6) release by LPS-stimulated THP-1 macrophages after fatty acid incubation; type: cell-based; details: for Release of cytokines (TNF-α, MCP-1, IL-6) by THP-1 macrophages compared to control macrophages: fatty acid 50 and 100 μM 24 h, then LPS 24 h; for Release of cytokines by THP-1 macrophages at increasing fatty acid concentration: highest 100 μM
Protocol: (§1) THP-1 cells were maintained in RPMI 1640+2 mM L-Glutamine, 10 mM HEPES, 1 mM sodium pyruvate, 4500 mg/L glucose, and 1500 mg/L sodium bicarbonate; supplemented with 3.5 μL/L of 2-mercaptoethanol and 10% fetal bovine serum (FBS). Cell line was maintained in 75 cm^2 filtered cap flasks in a 37° C. incubator with 5% CO2. THP-1 cells were seeded in 24 well plates at 5×10^5 cells/mL using 600 μL/well and allowed to differentiate into macrophages (MΦ) for 72 h with phorbol 12-myristate 13-acetate (PMA) at a final concentration of 50 ng/mL.
Experiment 1: Prior to incubation with individual fatty acids, the cells were starved for 8 h in a 2% lipo-free FBS RPMI medium. Individual fatty acids were added in duplicate into the 24 well plate at two concentrations, 50 μM and 100 μM. Every assay was cultured in three runs with duplicates in each run pooled. After incubation for 24 h with fatty acids the MΦ were scraped off the plates and fatty acids were isolated as described in the ‘Animal Tests’ portion of this Example. The fatty acid profiles of the MΦ were determined as previously described (Wang, et al., 2010, Clin. Nutr., DOI: 10.1016/j.clnu.2013.04.009).
(§2) Experiment 2: Previously differentiated MΦ were incubated with fatty acids as described in ‘Experiment 1’ for 24 hours. At the 24 h time point the cells were then stimulated with lipopolysaccharide from E. coli 0111:B4 for another 24 hours. The plates were centrifuged at 1200×g for 5 minutes and supernatant was then collected and analyzed for cytokines. The MΦ were scraped off the plates and fatty acids were isolated as described in the ‘Animal Portion’. The fatty acid profiles of the MΦ were determined as previously described (Wang, et al., 2010, Clin. Nutr., DOI: 10.1016/j.clnu.2013.04.009).
A linear mixed effects model was used in R, lme in the nlme package, for estimating treatment effects on cytokine production in LPS stimulated THP-1 cells. The fixed effects fit were treatment, FA concentration, and when significant LPS concentration was fit as a covariate, the plate cells were cultured on nested within run was fit as a random effect. Least squares means were analyzed as outlined above and pairwise comparisons were made between treatments for FA concentration, or where significant LPS concentration.
The objective of this study was to determine if docosapentaenoic acid n-3 (DPAn3) enrichment of macrophages (MΦ) changed their inflammatory response relative to saturated (S), mono-unsaturated (MU), and other poly-unsaturated (PU) fatty acids (FA). Differentiated THP-1 cells were incubated with one of 11 FA (50 and 100 μM) of varying degrees of unsaturation or no FA for 24 h prior to 24 h of stimulation with lipopolysaccharide from E. coli. Fatty acids were collected from MΦ without stimulation to determine the fatty acid profiles. Media was collected from MΦ post-stimulation and probed for prostaglandin E2, and cytokines, including tumor necrosis factor-α, monocyte chemoattractant protein-1, and interleukin-6. Prostaglandin E2 production was greater (P<0.05) for AA than all other FA, and omega-3 PUFA decreased (P<0.01) PGE2 compared to n6 PUFA and all other FA.

[2] = tested on: LDLr−/− mice; experiment: TNF-α concentration in adipose tissue of mice fed different omega-3 products; details: mouse, in vivo
From the text: (§3) 48 male LDLr−/− mice (8-10 weeks of age, ˜20 g) were obtained from Jackson Laboratories (stock #2207) and allowed to acclimate to the cages, room, and feeding design for 12 days. After the acclimation period mice were weighed and randomly assigned to one of six treatments. Mice were fed an isolipid (20% total fatty acids w/w), isonitrogenous, and 0.2% cholesterol (w/w) diet, which is considered atherogenic (Ain76, 58TQ TestDiet®) as a base diet. This base diet was formulated to meet or exceed all nutrient and energy requirements for a growing mouse. The treatments were added to the base diet (0.76% w/w of the total diet) and was made once at the beginning of the study, separated into weekly aliquots, stored at −80° C., allowed to thaw at 4° C. for 2 days prior to feeding, and stored at 4° C. until fed. A sample from each weekly aliquot was collected, composited, and archived for fatty acid analysis at a later date. The treatments were as follows: (1) Negative control diet, 3.5% of the total fatty acids were replaced with milk fat (the only source of fat in the base diet), (2) 3.5% of the total fatty acids were replaced with purified ethyl esters of DHA, (3) 3.5% of the total fatty acids were replaced with purified ethyl esters of DPAn3, (4) 3.5% of the total fatty acids were replaced with purified ethyl esters of EPA, (5) 3.5% of the total fatty acids were replaced with omega-3 fatty acids from Lovaza® (GlaxoSmithKline), and (6) 3.5% of the total fatty acids were replaced with omega-3 fatty acids from ΩmegaActiv® DPA 5000 (Omega Protein Inc., Houston, Tex.; Table 1).
TNF-α concentration in adipose tissue of mice fed with different omega-3 products

[3] = tested on: LDLr−/− mice; experiment: Fluorescence intensity of inflammatory markers in brain hippocampus of mice; type: in vivo, mouse; details: relative to control = 1
From the text: as §3
(§4) The objectives of these studies were to compare the effects of replacing 3.5% of the total fatty acids with DPAn3, EPA, DHA, and commercial combinations of EPA, DPAn3, and DHA on serum lipid profiles, brain inflammation, and the development of atherosclerosis in LDLr−/− mice fed an atherogenic diet for 20 weeks and [2] to determine if DPAn3 enrichment of macrophages (50 and 100 μM) changed their lipopolysaccharide stimulated inflammatory profile relative to saturated (S), mono-unsaturated (MU), and other omega-6 and omega-3 poly-unsaturated (PU) fatty acids (FA).

[4] = tested on: LDLr−/− mice; experiment: Fluorescence intensity of inflammatory markers in brain microvessel (cerebrovasculature) of mice; type: in vivo, mouse; details: relative to control = 1.00
From the text: as §3, §4
Flourescence intensity (relative) of brain microvessel

[5] = tested on: THP-1 cells; experiment: Prostaglandin E2 production by LPS-stimulated THP-1 macrophages after fatty acid incubation; type: cell-based; details: fatty acid 50 and 100 μM 24 h, then LPS 24 h
Protocol: as §1, §2
The objective of this study was to determine if docosapentaenoic acid n-3 (DPAn3) enrichment of macrophages (MΦ) changed their inflammatory response relative to saturated (S), mono-unsaturated (MU), and other poly-unsaturated (PU) fatty acids (FA). […]

[6] = tested on: murine peritoneal macrophages; details: cited from earlier work

SMILES: CCCCCCCCCCCCCCCC(=O)O [C16:0]
- Release of cytokines (TNF-α, MCP-1, IL-6) by THP-1 macrophages compared to control macrophages [1]: did not change the amount of cytokines released
- Release of cytokines by THP-1 macrophages at increasing fatty acid concentration [1]: did not change, or increased the amount of cytokines released

SMILES: CC/C=C\C/C=C\C/C=C\C/C=C\C/C=C\CCCC(=O)O [EPA, eicosapentaenoic acid]
- TNF-α Concentration in adipose tissue [2]: 0.58 pg/μg protein
- IL-8 fluorescence intensity (relative) of brain hippocampus [3]: 0.72
- TIMP2 fluorescence intensity (relative) of brain hippocampus [3]: 0.63
- TNF-α fluorescence intensity (relative) of brain hippocampus [3]: 0.31
- IL-8 fluorescence intensity (relative) of brain microvessel [4]: 0.93
- MCP-1 fluorescence intensity (relative) of brain microvessel [4]: 0.96

SMILES: CC/C=C\C/C=C\C/C=C\C/C=C\C/C=C\C/C=C\CCC(=O)O [DHA, docosahexaenoic acid]
- TNF-α Concentration in adipose tissue [2]: 0.82 pg/μg protein
- IL-8 fluorescence intensity (relative) of brain hippocampus [3]: 0.46
- TIMP2 fluorescence intensity (relative) of brain hippocampus [3]: 0.23
- TNF-α fluorescence intensity (relative) of brain hippocampus [3]: 0.29
- IL-8 fluorescence intensity (relative) of brain microvessel [4]: 0.86
- MCP-1 fluorescence intensity (relative) of brain microvessel [4]: 0.93

SMILES: CC/C=C\C/C=C\C/C=C\C/C=C\C/C=C\CCCCCC(=O)O [DPA, docosapentaenoic acid]
- TNF-α Concentration in adipose tissue [2]: 0.41 pg/μg protein
- IL-8 fluorescence intensity (relative) of brain hippocampus [3]: 0.70
- TIMP2 fluorescence intensity (relative) of brain hippocampus [3]: 0.17
- TNF-α fluorescence intensity (relative) of brain hippocampus [3]: 0.28
- IL-8 fluorescence intensity (relative) of brain microvessel [4]: 0.96
- MCP-1 fluorescence intensity (relative) of brain microvessel [4]: 0.92

SMILES: CCCCCCCC/C=C\CCCCCCCC(=O)O [oleic acid]
- Release of cytokines (TNF-α, MCP-1, IL-6) by THP-1 macrophages compared to control macrophages [1]: did not change the amount of cytokines released; also recorded: did not change inflammatory cytokine release
- Release of cytokines by THP-1 macrophages at increasing fatty acid concentration [1]: did not change, or increased the amount of cytokines released

SMILES: CCCCCCCCCCCCCCCCCC(=O)O [C18:0]
- Release of cytokines (TNF-α, MCP-1, IL-6) by THP-1 macrophages compared to control macrophages [1]: did not change the amount of cytokines released
- Release of cytokines by THP-1 macrophages at increasing fatty acid concentration [1]: did not change, or increased the amount of cytokines released

SMILES: CCCCC/C=C\C/C=C\C/C=C\C/C=C\CCCC(=O)O [AA, Arachidonic acid]
- Prostaglandin E2 production by THP-1 macrophages [5]: greater; also recorded: increased greatly
- TNF-α production ([6]; AA at 2-5 μM, increasing LPS concentrations): completely inhibited
- TNF-α production ([6]; AA at concentrations as low as 1 μM): decreased TNF-α production
- Release of cytokines (TNF-α, MCP-1, IL-6) by THP-1 macrophages compared to control macrophages [1]: most potent inhibitor of cytokine release followed by AA
- Release of cytokines (TNF-α, MCP-1, IL-6) by THP-1 macrophages compared to control macrophages ([1]; listed as Arachidonic acid): decreased cytokine expression, but not to the extent of EPA supplementation
